Results reported in ChEMBL document CHEMBL1130809, “Anti-inflammatory/antiarthritic ketonic bisphosphonic acid esters” (1998).

Key:
Type in all cases: functional
Settings in all cases: route oral
Mus musculus [1] = test: Inhibition of delayed type hypersensitivity granuloma in mice following 10 mg/kg p.o. administration.
Mus musculus [2] = test: Inhibition of antigen-induced arthritis in mice following 10 mg/kg p.o. administration.
Mus musculus [3] = test: Compound was tested for antiarthritic activity in murine model of antigen-induced arthritis. upon 10 mg/kg peroral administration
Mus musculus [4] = test: Compound was tested for antiarthritic activity in murine model of antigen-induced arthritis upon 10 mg/kg peroral administration
Mus musculus [5] = test: Compound was tested for anti-inflammatory activity in delayed type hypersensitivity granuloma upon 100 mg/kg peroral administration
Mus musculus [6] = test: Compound was tested for antiarthritic activity in murine model of antigen-induced arthritis upon 100 mg/kg peroral administration

Structure (SMILES)	inhibition in vivo at 10 mg/kg (Mus musculus [1]) [%]	inhibition in vivo at 10 mg/kg (Mus musculus [2]) [%]	further results
CCOP(=O)(OCC)C(CCC(=O)c1ccco1)P(=O)(OCC)OCC	23	11	
CCOP(=O)(OCC)C(CCC(=O)c1cccnc1)P(=O)(OCC)OCC	51	61	
CCOP(=O)(OCC)C(CCC(=O)c1ccccn1)P(=O)(OCC)OCC	43	47	
CCOP(=O)(OCC)C(CCC(=O)c1cccc(NS(C)(=O)=O)c1)P(=O)(OCC)OCC	37	33	
CCOP(=O)(OCC)C(CCC(=O)c1ccc(NC(=O)c2ccccc2)cc1)P(=O)(OCC)OCC	63	4	
CCOP(=O)(OCC)C(CCC(=O)c1cccc(Br)c1)P(=O)(OCC)OCC	59	22	
CCOP(=O)(OCC)C(CCC(O)c1ccccc1)P(=O)(OCC)OCC (stereo not given)	39		
CCOP(=O)(OCC)C(CCC(=O)c1cccc(F)c1)P(=O)(OCC)OCC	44	40	ED30 (Mus musculus [3]): 0.1 mg/kg
CC1(C)COP(=O)(C(CCC(=O)c2cccnc2)P2(=O)OCC(C)(C)CO2)OC1	38	28	ED30 (Mus musculus [3]): 0.4 mg/kg
CCOP(=O)(OCC)C(CCC(=O)c1cccc(Cl)c1)P(=O)(OCC)OCC	10	26	
CCOP(=O)(OCC)C(CCCc1ccccc1)P(=O)(OCC)OCC	44	11	
CCOC(=O)Nc1ccc(C(=O)CCC(P(=O)(OCC)OCC)P(=O)(OCC)OCC)cc1	43	18	
CC1(C)COP(=O)(C(CCC(=O)c2ccccc2)P2(=O)OCC(C)(C)CO2)OC1	36		
CC1(C)COP(=O)(C(CCC(=O)c2ccoc2)P2(=O)OCC(C)(C)CO2)OC1	45	16	
CCOP(=O)(OCC)C(CCC(=O)c1cccc(I)c1)P(=O)(OCC)OCC	5		
CCOP(=O)(OCC)C(CCC(=O)c1ccccc1)P(=O)(OCC)OCC	51	10	
CCOP(=O)(OCC)C(CC(=O)c1ccccc1)P(=O)(OCC)OCC	7	11	
CCOP(=O)(OCC)C(CCC(=O)c1ccc(NC(C)=O)cc1)P(=O)(OCC)OCC	75	10	
CC1(C)COP(=O)(C(CCC(=O)c2cccc(F)c2)P2(=O)OCC(C)(C)CO2)OC1	< 57	48	ED30 (Mus musculus [3]): 0.01 mg/kg
CCOP(=O)(OCC)C(CC(C(=O)c1ccccc1)c1ccccc1)P(=O)(OCC)OCC (stereo not given)	65		ED30 (Mus musculus [4]): 50 mg/kg; inhibition in vivo at 10 mg/kg (Mus musculus [4]): 54%
O=P(O)(O)C(Cl)(Cl)P(=O)(O)O [CLODRONIC ACID]			ED30 (Mus musculus [5]): 30 mg/kg; inhibition in vivo at 100 mg/kg (Mus musculus [5]): 48%; ED30 (Mus musculus [6]): 50 mg/kg; inhibition in vivo at 100 mg/kg (Mus musculus [6]): 42%
